For one series, the system named is beta-adrenergic. The note with it: cited from earlier work.
The conditions of series [1]: preclinical and clinical studies, cited from earlier work.
Series [2] deals with reduction in bladder capacity following continuous infusion of dilute acetic acid. Kind of series: Dilute acetic acid irritative model, bladder capacity by cystometry. The series is classed as in vivo, rat. The note with it: isobologram, drug alone; for common maximal effect, return to % of saline control bladder capacity: group mean data; for common maximal effect (target value), return to % of saline control bladder capacity: individual responses. Here is the method:
Urethane anesthetized (1.2 g/kg) normal female rats were utilized in this study.
Animals were dosed by volume of injection=body weight in kg.
Animal Preparation: Female rats (250-300 g body weight) were anesthetized with urethane (1.2 g/kg) and a saline-filled catheter (PE-50) was inserted into the jugular vein for intravenous drug administration. […] The abdominal cavity was moistened with saline and closed by covering with a thin plastic sheet in order to maintain access to the bladder for emptying purposes. Fine silver or stainless steel wire electrodes were inserted into the external urethral sphincter (EUS) percutaneously for electromyography (EMG).
Following 30 minutes of AA infusion, 3 vehicle injections were made at 20 minute intervals to determine vehicle effects, if any.
P<0.050 was considered significant.

Take `CC(C)NC[C@H](O)COc1cccc2ccccc12` [L-enantiomer of propranolol, propranolol]: the “potency of L-enantiomer relative to D-enantiomer” value in the series with beta-adrenergic is reported as 100 times.
In the case of `CC(OC(=O)NCC1(CC(=O)O)CCCCC1)OC(=O)C(C)C` (stereo not shown) [XP13512], the “blood levels of gabapentin across a broad range of oral doses” value in series [1] (oral) is “dose proportional blood levels of gabapentin”. Moreover, the “absorption from the large intestine” value in series [1] is given as “absorbed efficiently from the large intestine”.
For `NCC1(CC(=O)O)CCCCC1` [gabapentin, 1-(aminomethyl)cyclohexaneacetic acid], in series [2], the “common maximal effect, return to % of saline control bladder capacity” value was 43 % of saline control and the “common maximal effect (target value), return to % of saline control bladder capacity” value was 31 % of saline control.
As for `CCN(CC)CC#CCOC(=O)C(O)(c1ccccc1)C1CCCCC1` (stereo not shown) [oxybutynin, 4-diethylaminio-2-butynyl phenylcyclohexyglycolate], in series [2], the “common maximal effect, return to % of saline control bladder capacity” value is reported as 43 % of saline control and the “common maximal effect (target value), return to % of saline control bladder capacity” value is on record as 31 % of saline control.

The record behind these values is patent US20060276542A1, “Methods for treating functional bowel disorders using alpha2 subunit calcium channel modulators with smooth muscle modulators” (priority 2003, published 2006).
